Experimental findings from US10758541B2, “Formulations of milciclib and therapeutic combinations of the same for use in the treatment of cancer” (Tiziana Life Sciences PLC, priority 2017, dated 2020) are described below.

Usually IC50 stands for the midpoint of a concentration-inhibition curve.

Each structure is given as a SMILES string.

The subject of this assay is HepG2.2.15 cells. The experiment in a line: IC50 values by cell proliferation assay (WST-1). It is filed as cell-based. Particulars: Homo sapiens, HepG2.2.15; individual inhibitor, 72 hours, WST-1; read-out: HepG2.2.15 IC50. The source says: See Shailubhai, K et al. “Atiprimod is an inhibitor of cancer cell proliferation and angiogenesis.” J Exp Ther Oncol. 2004; 4: 267-279; and Choudhari et al. “Deactivation of Akt and STAT3 signaling promotes apoptosis, inhibits proliferation, and enhances the sensitivity of hepatocellular carcinoma cells to an anticancer agent, atiprimod” Molecular Cancer Therapeutics. 2007; 6: 112-121. References are incorporated herein in their entireties.
HepG2.2.15 cells are derived from the human hepatoblastoma cell line HepG2.
Cells (MHCC97H, MHCC97L, and HepG2.2.15) were cultured for 24 hours in 2% FBS and then were trypsinized, resuspended in 2% FBS and seeded in a rat collagen coated 96-well plate at a density of 10,000 cells/100 μl/well, a day before the experiment and cultured at 37° C. in 5% CO2. The cells were treated the next day with milciclib, sorafenib, regorafenib, sunitinib, and lenvatinib, individually or in combination in DMEM/F12+2% FBS+for 72 hours prior to the addition of WST-1 reagent. About 100 μL media was added to control well. After cells had been cultured for 72 hours with different drug concentrations, cells were washed 3 times with sterile 1× Phosphate buffered saline (PBS). To determine cell proliferation by the colorimetric test, 10 μL of WST-1 reagent (Sigma Aldrich, St Louis, Mo.) was added in 100 μL cell culture media and incubated for 2 hours in 5% CO2 at 37° C. At the end of incubation period, the plate was placed on a plate shaker for 1 minute and was monitored using a spectrophotometer at an optical density of 450 nm with a reference wavelength of 600 nm using Tecan F200 and iControl software. IC50 values were determined using GraphPad Prism (GraphPad Software, La Jolla, Calif.). Each experiment was performed in duplicate and repeated 2 times.
Background: Formazan colour is commonly taken as a measure of viable cells.

Turning to `CNC(=O)c1nn(C)c2c1C(C)(C)Cc1cnc(Nc3ccc(N4CCN(C)CC4)cc3)nc1-2` [MILCICLIB, N,1,4,4-tetramethyl-8-((4-(4-methylpiperazin-1-yl)phenyl)amino)-4,5-dihydro-1H-pyrazolo[4,3-h]quinazoline-3-carboxamide], the IC50 was determined as 1.16 µM.
